Source: patent US20230399287A1, “NOVEL COMPOUNDS” (Sitryx Therapeutics Limited, priority 2020, published 2023)

Assays:
[1] = system: IL-1β; experiment: THP-1 AlphaLISA IL-1β cytokine assay; assay type: cell-based; conditions: for IC50: Homo sapiens, THP-1, differentiated THP-1 cells, LPS 24 hr then Nigericin 1 hour
Outline: (§1)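 THP-1 cells differentiated with PMA for 72 h, pre-incubated with compound for 30 min, primed with LPS for 24 h, then given nigericin for 1 h at 37 °C. IL-1β and IL-6 in supernatants were read by AlphaLISA. % inhibition was set against ±LPS controls and IC50 taken from concentration–response curves.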

[2] = system: NRF2; experiment: NRF2 +/- GSH activation assay (DiscoverX PathHunter NRF2 translocation kit); assay type: cell-based; conditions: for EC50: Homo sapiens, U2OS, U2OS PathHunter cells
[3] = system: IL-6; experiment: THP-1 AlphaLISA IL-6 cytokine assay; assay type: cell-based; conditions: for IC50: Homo sapiens, THP-1, differentiated THP-1 cells, LPS 24 hr then Nigericin 1 hour
Outline: as §1

[4] = system: hepatocytes; experiment: Hepatocyte stability assay (mouse); assay type: in vitro ADME; conditions: 10 μM compound, 60 min
Outline: (§2)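 Cryopreserved human or mouse hepatocytes (0.5×10^6 cells/mL in Leibovitz buffer) were incubated with 10 μM compound (0.1% DMSO) at 37° C in duplicate, alongside a buffer-only control. Samples taken from 0 to 60 min were analysed by LC-MS/MS. Half-life and Clint (μL min^−1 10^−6 cells) came from the ln % remaining versus time slope.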

[5] = Hepatocyte stability assay (mouse); assay type: in vitro ADME; conditions: mouse, cryopreserved hepatocytes, 10 μM compound, 60 min, read-out: T½
Outline: as §2

[6] = system: hepatocytes; experiment: Hepatocyte stability assay (human); assay type: in vitro ADME; conditions: 10 μM compound, 60 min
Outline: as §2

[7] = Hepatocyte stability assay (human); assay type: in vitro ADME; conditions: human, cryopreserved hepatocytes, 10 μM compound, 60 min, read-out: T½
Outline: as §2

[8] = +GSH, normalised to dimethyl fumarate high control
[9] = −GSH, normalised to dimethyl fumarate high control
[10] = THP-1 cells, statement in words

SMILES | IC50 [1] [µM] | Emax [2, 8] [%] | EC50 ([2]; +GSH) [µM] | EC50 ([2]; −GSH) [µM] | Emax [2, 9] [%] | IC50 [3] [µM] | Clint [4] [μL min^−1 10^−6 cells] | half-life at 10 μM [5] [h] | Clint [6] [μL min^−1 10^−6 cells] | half-life at 10 μM [7] [h] | cytokine-lowering potencies for IL-1β compared to dimethyl itaconate, dimethyl fumarate and 4-octyl itaconate [1, 10] | Emax ([2]; +GSH, data from repeated experiments) [%] | Emax ([2]; −GSH, data from repeated experiments) [%] | cytokine-lowering potencies for IL-6 compared to dimethyl itaconate [3, 10]
C=C(CC(=O)OC1(c2ccc(C(F)(F)F)cn2)CC1)C(=O)O [Example 58, 2-methylene-4-oxo-4-(1-(5-(trifluoromethyl)pyridin-2-yl)cyclopropoxy)butanoic acid] | 3.2 | 0 | > 100 | > 100 | 1 | > 42.2 | 5 | 5.45 | 5 | 6.2 | – | – | – | –
C=C(CC(=O)OC1(c2ccc(C(F)(F)F)cc2)CSC1)C(=O)O [Example 40, 2-methylene-4-oxo-4-((3-(4-(trifluoromethyl)phenyl)thietan-3-yl)oxy)butanoic acid] | 0.8 | 9 | > 100 | 1.7 | 61 | > 100 | 25 | 1.48 | 12 | 1.68 | – | – | – | –
C=C(CC(=O)OC(C)(C)c1ccc(C(F)(F)F)cc1)C(=O)O [Example 2, 2-methylene-4-oxo-4-((2-(4-(trifluoromethyl)phenyl)propan-2-yl)oxy)butanoic acid] | 0.8 | 0 | > 100 | > 100 | 0 | > 63.1 | 35 | 0.583 | 8 | 2.83 | – | – | – | –
C=C(CC(=O)OC1(c2ccc(SC(F)(F)F)cc2)CCC1)C(=O)O [Example 9, 2-methylene-4-oxo-4-(1-(4-((trifluoromethyl)thio)phenyl)cyclobutoxy)butanoic acid] | 2.8 | 6 | > 100 | > 100 | 14 | > 100 | 44 | 0.633 | 15 | 1.52 | – | – | – | –
C=C(CC(=O)OC1(c2ccc(-c3ccc(C(F)(F)F)cc3)cc2)CCC1)C(=O)O [Example 26, 2-methylene-4-oxo-4-(1-(4′-(trifluoromethyl)-[1,1′-biphenyl]-4-yl)cyclobutoxy)butanoic acid] | 42 | 34 | > 100 | 24.1 | 88 | 3.7 | >460 | < 0.05 | 238 | 0.1 | – | – | – | –
C=C(CC(=O)OC1(c2ccc(C(F)(F)F)c(Cl)c2)CCC1)C(=O)O [Example 12, 4-(1-(3-chloro-4-(trifluoromethyl)phenyl)cyclobutoxy)-2-methylene-4-oxobutanoic acid] | 4.5 | 46 | > 100 | 81.6 | 66 | 82.6 | 42 | 0.75 | 46 | 0.617 | – | – | – | –
C=C(CC(=O)OC1(c2ccc(C(F)(F)F)cc2)CCC1)C(=O)O [Example 1, 2-methylene-4-oxo-4-(1-(4-(trifluoromethyl)phenyl)cyclobutoxy)butanoic acid] | 0.8 | 10 | > 100 | > 100 | 37 | 62 | 13 | 2.52 | 11 | 1.93 | much improved cytokine-lowering potencies | 14 | 17 | improved cytokine-lowering potencies
